Starred links: 1 amine or outer side, 2 acyl side, 3 side chain; linkers in the order of their positions; H or OH if unused. Positions of bridges follow the written chain, without caps; N, C: chain ends. Non-standard residues stand in square brackets, D forms with d. Residues, ends and D or L forms follow the SMILES beside them. X2 = N=C(N)NCCC[C@@H](C(=O)[C@H](CCC(N)=O)N[*:1])C(=O)[*:2]; X3 = O=C(NC(=O)[*:2])[C@H](CO)N[*:1]
Tests used:
[1] = Inhibition of trypsin by substrate hydrolysis based fluorescence assay
[2] = Inhibition of tryptase by substrate hydrolysis based fluorescence assay

Ki [1] [nM] | Ki [2] [nM] | Structure (SMILES)
8.8 | 28 | CC[C@H](C)[C@@H]1NC(=O)[C@H](CCCNC(=N)N)NC(=O)[C@@H]2CCCN2C(=O)[C@@H]2CSSC[C@@H]3NC(=O)CNC(=O)[C@H](C)NC(=O)[C@H](CC(C)C)NC(=O)[C@@H]4CSSC[C@H](NC(=O)[C@H](Cc5ccc(O)cc5)NC(=O)CNC(=O)[C@H](CC(N)=O)NC(=O)CNC(=O)[C@H](CCCNC(=N)N)NC(=O)[C@H](CSSC[C@H](NC(=O)[C@@H](CCCNC(=N)N)C(=O)[C@H](CCC(N)=O)NC(=O)[C@H](CC(C)C)NC1=O)C(=O)N[C@@H](CCCNC(=N)N)C(=O)N[C@@H](CCCNC(=N)N)C(=O)N[C@@H](CC(=O)O)C(=O)N[C@@H](CO)C(=O)N[C@@H](CC(=O)O)C(=O)N4)NC(=O)[C@H](CC(C)C)NC3=O)C(=O)NCC(=O)N[C@@H](CO)C(=O)NCC(=O)N[C@@H](C(C)C)C(=O)N2 (cyclo(AGCLCRGNGYCGSGVCPRIL[X2]CRRDSDCL); disulfide 3-16, 5-22, 11-28)
48 | 33 | CC[C@H](C)[C@@H]1NC(=O)[C@H](CCCCN)NC(=O)[C@@H]2CCCN2C(=O)[C@@H]2CSSC[C@@H]3NC(=O)CNC(=O)[C@H](C)NC(=O)[C@H](CC(C)C)NC(=O)[C@@H]4CSSC[C@H](NC(=O)[C@H](Cc5ccc(O)cc5)NC(=O)CNC(=O)[C@H](CC(N)=O)NC(=O)CNC(=O)[C@H](CCCNC(=N)N)NC(=O)[C@H](CSSC[C@H](NC(=O)[C@@H](CCCNC(=N)N)C(=O)[C@H](CCC(N)=O)NC(=O)[C@H](CC(C)C)NC1=O)C(=O)N[C@@H](CCCNC(=N)N)C(=O)N[C@@H](CCCNC(=N)N)C(=O)N[C@@H](CC(=O)O)C(=O)N[C@@H](CO)C(=O)N[C@@H](CC(=O)O)C(=O)N4)NC(=O)[C@H](CC(C)C)NC3=O)C(=O)NCC(=O)N[C@@H](CO)C(=O)NCC(=O)N[C@@H](C(C)C)C(=O)N2 (cyclo(AGCLCRGNGYCGSGVCPKIL[X2]CRRDSDCL); disulfide 3-16, 5-22, 11-28)
4.3 | 600 | CC[C@H](C)[C@@H]1NC(=O)[C@@H]2CSSC[C@@H]3NC(=O)[C@H](C(C)C)NC(=O)CNC(=O)NC(=O)[C@H](CO)NC(=O)CNC(=O)[C@H](CO)NC(=O)CNC(=O)[C@@H]4CSSC[C@H](NC(=O)[C@H](CC(=O)O)NC(=O)[C@H](CO)NC(=O)[C@H](CC(=O)O)NC(=O)[C@H](CCCNC(=N)N)NC(=O)[C@H](CCCNC(=N)N)NC(=O)[C@H](CSSC[C@H](NC1=O)C(=O)N[C@@H](CCCNC(=N)N)C(=O)NCC(=O)N[C@@H](CC(N)=O)C(=O)NCC(=O)N[C@@H](Cc1ccc(O)cc1)C(=O)N4)NC(=O)[C@@H](CCCNC(=N)N)C(=O)[C@H](CCC(N)=O)NC(=O)[C@H](CC(C)C)NC(=O)[C@H]([C@@H](C)CC)NC(=O)[C@H](CCCCN)NC(=O)[C@@H]1CCCN1C3=O)C(=O)N1CCC[C@H]1C(=O)NCC(=O)N[C@@H](C)C(=O)N2 (cyclo(ACICRGNGYCGSG[X3]GVCPKIL[X2]CRRDSDCPG); disulfide 2-17, 4-23, 10-29)
99 | 110 | CC[C@H](C)[C@@H]1NC(=O)[C@H](CCCCN)NC(=O)[C@@H]2CCCN2C(=O)[C@@H](NC(=O)[C@@H](N)C(C)C)CSSC[C@@H]2NC(=O)CNC(=O)[C@H](C)NC(=O)[C@H](CC(C)C)NC(=O)[C@@H]3CSSC[C@@H](C(=O)NCC(=O)N[C@@H](CO)C(=O)NCC(=O)O)NC(=O)[C@H](Cc4ccc(O)cc4)NC(=O)CNC(=O)[C@H](CC(N)=O)NC(=O)CNC(=O)[C@H](CCCNC(=N)N)NC(=O)[C@H](CSSC[C@H](NC(=O)[C@@H](CCCNC(=N)N)C(=O)[C@H](CCC(N)=O)NC(=O)[C@H](CC(C)C)NC1=O)C(=O)N[C@@H](CCCNC(=N)N)C(=O)N[C@@H](CCCNC(=N)N)C(=O)N[C@@H](CC(=O)O)C(=O)N[C@@H](CO)C(=O)N[C@@H](CC(=O)O)C(=O)N3)NC(=O)[C@H](CC(C)C)NC2=O (H-VCPKIL[X2]CRRDSDCLAGCLCRGNGYCGSG-OH; disulfide 2-18, 8-20, 14-26)
